In patent publication US10562890B2, “Cancer therapeutics” (UNIVERSITY OF VIRGINIA PATENT FOUNDATION, priority 2014, dated 2020):

Assays:
H520 lung cancer cells = test: MTT growth assay, H520 cells; type: cell-based; details: H520, 10 μM, 72 hrs
Protocol: (§1) Activity of Al-10-104 was tested using several lung cancer cell lines and one immortalized, non-transformed lung cell line. […] Data for the squamous cell carcinoma of the lung cell line H520 and the immortalized normal lung epithelial cell line BEAS-2B are shown in FIG. 10.
(§2) H520 cells were cultured in RPMI 1640 medium, supplemented with fetal bovine serum (10% final concentration), Hepes (1%), and sodium priruvate (1%). The MTT assay used 4×10^5/ml cells. BEAS-2B cells were cultured in DMEM medium with fetal bovine serum (10% final concentration). The MTT assay for the BEAS-2B cell line was performed using 3.5×10^5/ml cells.
(§3) Al-4-88 had no effect on either cell line.

[1] = biological target: binding of CBFβ to RUNX1 in SEM cells (Homo sapiens (Human), UniProt Q13951); test: Co-immunoprecipitation of CBFβ with RUNX1 in SEM cells; type: cell-based; details: 10 μM, 6 hours
Chain of binding of CBFβ to RUNX1 in SEM cells (Q13951 whole entry): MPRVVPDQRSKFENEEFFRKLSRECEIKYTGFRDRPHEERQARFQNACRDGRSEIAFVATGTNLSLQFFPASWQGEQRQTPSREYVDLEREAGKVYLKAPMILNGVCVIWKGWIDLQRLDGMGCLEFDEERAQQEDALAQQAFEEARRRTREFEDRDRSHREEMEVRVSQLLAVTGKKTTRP
Protocol: To test whether the wild-type CBFβ Inhibitors can disrupt the binding of CBFβ to RUNX1 in cells, co-immunoprecipitation experiments were performed in the SEM cell line. Co-immunoprecipitation assays of lysates from […] SEM cells were treated with Al-4-88^1, Al-10-47, Al-10-104, Al-12-126 and Al-14-91 at 10 μM for 6 hours. RUNX1-bound CBFβ protein levels and immunoprecipitated RUNX1 are shown on the top panel of FIG. 2A. Quantification of RUNX1 bound CBFβ is shown on the bottom graph.

T-ALL cell lines = test: Apoptosis in T-ALL cell lines; type: cell-based, human
MLL-AF4 leukemia cells = test: Cell death of MLL-AF4 leukemia cells; type: cell-based, human
lung cancer cell lines = test: MTT growth assay, several lung cancer cell lines; type: cell-based
Protocol: as §1

[2] = tested on: primary T-ALL patient samples; test: Apoptosis of primary T-ALL patient samples; type: cell-based, human
[3] = tested on: BEAS-2B normal lung cells; test: MTT growth assay, BEAS-2B cells; type: cell-based; details: 10 μM, 72 hrs
Protocol: as §1, §2, §3

[4] = tested on: OVCAR8 ovarian cancer cells; test: CellTiter-Glo viability assay, OVCAR8; type: cell-based; details: Homo sapiens, OVCAR-8, OVCAR8, 72 hours
Protocol: OVCAR8 cells were grown in RPMI 1640 supplemented with 10% Fetal bovine serum and 1% antibiotics. OVCAR4 cells were grown in RPMI 1640 supplemented with 20% fetal bovine serum and 1% antibiotics. Cells growing at approximately 70% confluency were trypsinized and 2500 cells per well were re-plated in opaque bottomed 96-well plates.
24 hours after plating, chemical compounds diluted in DMSO were mixed with cell growth media and added to cells. Compounds mixed with media were made at 10× concentration. Cells treated with compounds were incubated for 72 hours in a humidified incubator at 37° C. supplemented with 5% CO2. Percentage of cells viable after 72 hours was determined by CellTitler-Glo according to the manufacturer's instructions. Data analysis was performed using GraphPad 5.0.
In the graph, the ordinate represents % inhibition and the abscissa represents the log value of the concentration of the compound.

[5] = tested on: T-ALL cell lines Jurkat, HBP-ALL, Loucy, and KOPTK1; test: Proliferation of T-ALL cell lines; type: cell-based, human
[6] = Aqueous solubility in 0.25% DMSO by NMR spectroscopy; type: physicochemical; details: aqueous, kinetic from dmso stock; 0.25% DMSO, NMR spectroscopy; read-out: aqueous solubility
Protocol: Al-10-104, Al-12-126, and Al-14-91 were all soluble at concentrations above 100 μM. […] As the Runt domain is highly conserved among all three RUNX family members, we would expect to see similar effects on binding to RUNX2 or RUNX3. Therefore, the action of the inhibitors will likely affect the activity of all three RUNX family members.

11 leukemia cell lines = test: Viability of a panel of 11 leukemia cell lines; type: cell-based; details: 48 hours of treatment
Excerpt: Compounds Al-4-88, Al-4-57, Al-10-47, Al-10-104, and Al-14-91 were screened against a panel of 11 leukemia cell lines with varying genotypes.
The viability is represented as the percent DAPI negative cells relative to DMSO control. Each symbol/color in the graphs of FIG. 4 represent an individual cell line. The symbol represents the mean of independent replicates and the error bars represent the SEM. The table indicates the morphology, type of leukemia, and known mutations for each of the 11 cell lines.

MCF10A-5E cells = test: Multiacini formation in 3D culture of MCF10A-5E cells; type: cell-based; details: shRUNX1 or control cells, 3D culture 10-11 days, compared to carrier control or Al-4-88
Excerpt: CBFβ inhibitors altered acinar morphogenesis of the basal-like (triple negative) breast epithelial cells and blocked survival of basal-like breast cancer cells in 3D organotypic culture. To evaluate whether CBFβ inhibition would influence the multicellular organization of basal-like breast epithelia, 3D culture of MCF10A-5E cells was used. Knockdown of RUNX1 in these cells delayed proliferation arrest and promoted the formation of nonspherical acini, indicating a role for RUNX1 during morphogenesis.
The multiacini resulting from CBFβ inhibition were not radially symmetric, thereby arguing against a general defect in cell polarity or proliferation arrest. Instead, the inhibitors appeared to be initiating a nascent branching program that is reminiscent of when TGFβ-family signaling is impaired.
FIG. 9A: MCF10A-5E cells stably expressing shRUNX1 or shGFP control were grown in 3D culture for 10-11 days with the indicated compounds and imaged by Brightfield microscopy. The total number of multiacini per chamber was counted and scaled to the shGFP DMSO control. Data are shown as the mean±SEM of eight independent cultures.

In the case of `COc1cccnc1-c1nc2cc(OC(F)(F)F)ccc2[nH]1` [Al-10-104], the “cell growth (MTT assay)” value (H520 lung cancer cells) is reported as “inhibited almost as effectively as 1 μM staurosporine”, the “RUNX1-bound CBFβ (co-immunoprecipitation)” value [1] is reported as “reduction in binding” and the apoptosis (T-ALL cell lines) is reported as “induced apoptosis”. The cell death (MLL-AF4 leukemia cells) was “induced cell death”, the “growth inhibition (MTT assay)” value (lung cancer cell lines) was “growth inhibition” and the apoptosis [2] was “induced apoptosis”. For the same compound, the “cell growth (MTT assay)” value [3] was “no effect”, the IC50 [4] was 4.84 µM and the proliferation [5] was “inhibited proliferation”. The solubility [6] was > 100 µM, the “percent viability (DAPI negative cells relative to DMSO)” value (11 leukemia cell lines) was “significant inhibition of the majority of the cell lines” and the “formation of multiacinar structures” value (MCF10A-5E cells) was “dramatic increase”.
